PubChem BioAssay AID1963444 (Molecular Pharmacology Branch, DTP, NCI, 2024)

Test system: HSSY-II complex spheroid growth, percent test/control
Test: Anticancer human tumor HSSY-II cell line growth inhibition [Asc];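 also: spheroids exposed to drug for 7 days before reading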
Conditions: for IC50: curve of first compound; for viability, T/C: stronger effect = lower value
Method in brief: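 Concentration series start at each agent's clinical Cmax, or at 10 microM when none is established, and drop in half-log steps; agents are applied alone or together to complex spheroids built with HUVEC and hMSC.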

[1] = second compound 0.1 µM, first compound 0.0316 µM
[2] = second compound 0.1 µM, first compound 0.1 µM
[3] = second compound 0.1 µM, first compound 0.316 µM
[4] = second compound 0.1 µM, first compound 1 µM
[5] = second compound 0.1 µM, first compound 3.16 µM
[6] = second compound 0.1 µM, first compound 10 µM
[7] = second compound 0.316 µM, first compound 0.0316 µM
[8] = second compound 0.316 µM, first compound 0.1 µM
[9] = second compound 0.316 µM, first compound 0.316 µM
[10] = second compound 0.316 µM, first compound 1 µM
[11] = second compound 0.316 µM, first compound 3.16 µM
[12] = second compound 0.316 µM, first compound 10 µM
[13] = second compound 1 µM, first compound 0.0316 µM
[14] = second compound 1 µM, first compound 0.1 µM
[15] = second compound 1 µM, first compound 0.316 µM
[16] = second compound 1 µM, first compound 1 µM
[17] = second compound 1 µM, first compound 3.16 µM
[18] = second compound 1 µM, first compound 10 µM
[19] = second compound 3.16 µM, first compound 0.0316 µM
[20] = second compound 3.16 µM, first compound 0.1 µM
[21] = second compound 3.16 µM, first compound 0.316 µM
[22] = second compound 3.16 µM, first compound 1 µM
[23] = second compound 3.16 µM, first compound 3.16 µM
[24] = second compound 3.16 µM, first compound 10 µM
[25] = second compound 10 µM, first compound 0.0316 µM
[26] = second compound 10 µM, first compound 0.1 µM
[27] = second compound 10 µM, first compound 0.316 µM
[28] = second compound 10 µM, first compound 1 µM
[29] = second compound 10 µM, first compound 3.16 µM
[30] = second compound 10 µM, first compound 10 µM

C=C(F)C(=O)N1CCN(c2nc(OCC3CCCN3C)nc3c2CCN(c2cccc4cccc(Cl)c24)C3)CC1CC#N (stereo not given) + Cc1c(S(C)(=O)=O)c(-c2cc(F)cc(N3CCN(c4ccc(NS(=O)(=O)c5ccc(NC(CCN6CCC(C(=O)OCCCP(=O)(O)O)CC6)CSc6ccccc6)c(S(=O)(=O)C(F)(F)F)c5)cc4)CC3)c2)c(-c2ccc(Cl)cc2)n1C(C)C
IC50 (second compound 0.1 µM): 1440 nM
IC50 (second compound 0.316 µM): 1360 nM
IC50 (second compound 1 µM): 1150 nM
IC50 (second compound 3.16 µM): 1030 nM
IC50 (second compound 10 µM): 997 nM
viability, T/C [1]: 106%
viability, T/C [2]: 106%
viability, T/C [3]: 86.7%
viability, T/C [4]: 72.7%
viability, T/C [5]: 0.9%
viability, T/C [6]: 0.13%
viability, T/C [7]: 105%
viability, T/C [8]: 92%
viability, T/C [9]: 84%
viability, T/C [10]: 68%
viability, T/C [11]: 0.59%
viability, T/C [12]: 0.11%
viability, T/C [13]: 98.4%
viability, T/C [14]: 97.3%
viability, T/C [15]: 95.6%
viability, T/C [16]: 57%
viability, T/C [17]: 0.36%
viability, T/C [18]: 0.12%
viability, T/C [19]: 104%
viability, T/C [20]: 98%
viability, T/C [21]: 97%
viability, T/C [22]: 51.6%
viability, T/C [23]: 0.27%
viability, T/C [24]: 0.13%
viability, T/C [25]: 106%
viability, T/C [26]: 113%
viability, T/C [27]: 85.3%
viability, T/C [28]: 55.7%
viability, T/C [29]: 0.4%
viability, T/C [30]: 0.22%

C=CC(=O)N1CCN(c2nc(=O)n(-c3c(C)ccnc3C(C)C)c3nc(-c4c(O)cccc4F)c(F)cc23)C(C)C1 (stereo not given) + Cc1c(S(C)(=O)=O)c(-c2cc(F)cc(N3CCN(c4ccc(NS(=O)(=O)c5ccc(NC(CCN6CCC(C(=O)OCCCP(=O)(O)O)CC6)CSc6ccccc6)c(S(=O)(=O)C(F)(F)F)c5)cc4)CC3)c2)c(-c2ccc(Cl)cc2)n1C(C)C
IC50 (second compound 0.1 µM): > 10000 nM
IC50 (second compound 0.316 µM): > 10000 nM
IC50 (second compound 1 µM): > 10000 nM
IC50 (second compound 3.16 µM): > 10000 nM
IC50 (second compound 10 µM): > 10000 nM
viability, T/C [1]: 116%
viability, T/C [2]: 121%
viability, T/C [3]: 105%
viability, T/C [4]: 111%
viability, T/C [5]: 97.8%
viability, T/C [6]: 67.7%
viability, T/C [7]: 114%
viability, T/C [8]: 110%
viability, T/C [9]: 105%
viability, T/C [10]: 99.9%
viability, T/C [11]: 114%
viability, T/C [12]: 67.8%
viability, T/C [13]: 104%
viability, T/C [14]: 111%
viability, T/C [15]: 96.4%
viability, T/C [16]: 100%
viability, T/C [17]: 105%
viability, T/C [18]: 51.3%
viability, T/C [19]: 109%
viability, T/C [20]: 99.9%
viability, T/C [21]: 101%
viability, T/C [22]: 107%
viability, T/C [23]: 103%
viability, T/C [24]: 55%
viability, T/C [25]: 100%
viability, T/C [26]: 99.2%
viability, T/C [27]: 93.1%
viability, T/C [28]: 110%
viability, T/C [29]: 96.7%
viability, T/C [30]: 61.3%

CCN1C(C(=O)NC23CCC(C(=O)O)(CC2)CC3)C(c2cccc(Cl)c2F)C2(C(=O)Nc3cc(Cl)ccc32)C12CCCCC2 (stereo not given) + Cc1c(S(C)(=O)=O)c(-c2cc(F)cc(N3CCN(c4ccc(NS(=O)(=O)c5ccc(NC(CCN6CCC(C(=O)OCCCP(=O)(O)O)CC6)CSc6ccccc6)c(S(=O)(=O)C(F)(F)F)c5)cc4)CC3)c2)c(-c2ccc(Cl)cc2)n1C(C)C
IC50 (second compound 0.1 µM): 100 nM
IC50 (second compound 0.316 µM): 59.4 nM
IC50 (second compound 1 µM): 83.5 nM
IC50 (second compound 3.16 µM): 54.2 nM
IC50 (second compound 10 µM): 53.9 nM
viability, T/C (second compound 0.1 µM, first compound 0.00949 µM): 106%
viability, T/C (second compound 0.1 µM, first compound 0.03 µM): 92.7%
viability, T/C (second compound 0.1 µM, first compound 0.0949 µM): 49.4%
viability, T/C (second compound 0.1 µM, first compound 0.3 µM): 19.4%
viability, T/C (second compound 0.1 µM, first compound 0.949 µM): 3.79%
viability, T/C (second compound 0.1 µM, first compound 3 µM): 0.58%
viability, T/C (second compound 0.316 µM, first compound 0.00949 µM): 102%
viability, T/C (second compound 0.316 µM, first compound 0.03 µM): 78.1%
viability, T/C (second compound 0.316 µM, first compound 0.0949 µM): 29.7%
viability, T/C (second compound 0.316 µM, first compound 0.3 µM): 11.1%
viability, T/C (second compound 0.316 µM, first compound 0.949 µM): 3.4%
viability, T/C (second compound 0.316 µM, first compound 3 µM): 0.3%
viability, T/C (second compound 1 µM, first compound 0.00949 µM): 104%
viability, T/C (second compound 1 µM, first compound 0.03 µM): 84.6%
viability, T/C (second compound 1 µM, first compound 0.0949 µM): 47.4%
viability, T/C (second compound 1 µM, first compound 0.3 µM): 9.68%
viability, T/C (second compound 1 µM, first compound 0.949 µM): 1.67%
viability, T/C (second compound 1 µM, first compound 3 µM): 0.19%
viability, T/C (second compound 3.16 µM, first compound 0.00949 µM): 94.3%
viability, T/C (second compound 3.16 µM, first compound 0.03 µM): 73.3%
viability, T/C (second compound 3.16 µM, first compound 0.0949 µM): 28%
viability, T/C (second compound 3.16 µM, first compound 0.3 µM): 4.69%
viability, T/C (second compound 3.16 µM, first compound 0.949 µM): 1.19%
viability, T/C (second compound 3.16 µM, first compound 3 µM): 0.17%
viability, T/C (second compound 10 µM, first compound 0.00949 µM): 92.8%
viability, T/C (second compound 10 µM, first compound 0.03 µM): 73.6%
viability, T/C (second compound 10 µM, first compound 0.0949 µM): 27.2%
viability, T/C (second compound 10 µM, first compound 0.3 µM): 4.78%
viability, T/C (second compound 10 µM, first compound 0.949 µM): 1.16%
viability, T/C (second compound 10 µM, first compound 3 µM): 0.26%

CNC(C)C(=O)NC1CN(S(=O)(=O)c2cccc(S(=O)(=O)N3CCC4CCC(C(=O)NC(c5ccccc5)c5ccccc5)N4C(=O)C(NC(=O)C(C)NC)C3)c2)CCC2CCC(C(=O)NC(c3ccccc3)c3ccccc3)N2C1=O (stereo not given) + Cc1c(S(C)(=O)=O)c(-c2cc(F)cc(N3CCN(c4ccc(NS(=O)(=O)c5ccc(NC(CCN6CCC(C(=O)OCCCP(=O)(O)O)CC6)CSc6ccccc6)c(S(=O)(=O)C(F)(F)F)c5)cc4)CC3)c2)c(-c2ccc(Cl)cc2)n1C(C)C
IC50 (second compound 0.1 µM): > 1000 nM
IC50 (second compound 0.316 µM): > 1000 nM
IC50 (second compound 1 µM): > 1000 nM
IC50 (second compound 3.16 µM): > 1000 nM
IC50 (second compound 10 µM): > 1000 nM
viability, T/C (second compound 0.1 µM, first compound 0.00316 µM): 114%
viability, T/C (second compound 0.1 µM, first compound 0.01 µM): 100%
viability, T/C [1]: 103%
viability, T/C [2]: 90.6%
viability, T/C [3]: 96.9%
viability, T/C [4]: 88.1%
viability, T/C (second compound 0.316 µM, first compound 0.00316 µM): 116%
viability, T/C (second compound 0.316 µM, first compound 0.01 µM): 90.5%
viability, T/C [7]: 90.7%
viability, T/C [8]: 84.7%
viability, T/C [9]: 103%
viability, T/C [10]: 86%
viability, T/C (second compound 1 µM, first compound 0.00316 µM): 98.7%
viability, T/C (second compound 1 µM, first compound 0.01 µM): 97%
viability, T/C [13]: 90.4%
viability, T/C [14]: 82%
viability, T/C [15]: 89.3%
viability, T/C [16]: 90.9%
viability, T/C (second compound 3.16 µM, first compound 0.00316 µM): 93.2%
viability, T/C (second compound 3.16 µM, first compound 0.01 µM): 94.2%
viability, T/C [19]: 81%
viability, T/C [20]: 81.5%
viability, T/C [21]: 71.4%
viability, T/C [22]: 83.3%
viability, T/C (second compound 10 µM, first compound 0.00316 µM): 93.2%
viability, T/C (second compound 10 µM, first compound 0.01 µM): 94.7%
viability, T/C [25]: 80.7%
viability, T/C [26]: 79.5%
viability, T/C [27]: 77.4%
viability, T/C [28]: 76.3%
